The text below walks through data of PMC10694602, “Binding of perilipin 3 to membranes containing diacylglycerol is mediated by conserved residues within its PAT domain” (The Journal of Biological Chemistry, 2023).

By Kd is commonly meant the equilibrium constant for the complex coming apart.

The target of one test is T1, PLIN3 (Homo sapiens, UniProt O60664).
T1 construct: Plasmids containing human full-length PLIN3 or fragments thereof were obtained by PCR amplification; made in house; host or cells: Escherichia coli BL21 (DE3) or NiCo21 (DE3)
T1 sequence (O60664 1-434): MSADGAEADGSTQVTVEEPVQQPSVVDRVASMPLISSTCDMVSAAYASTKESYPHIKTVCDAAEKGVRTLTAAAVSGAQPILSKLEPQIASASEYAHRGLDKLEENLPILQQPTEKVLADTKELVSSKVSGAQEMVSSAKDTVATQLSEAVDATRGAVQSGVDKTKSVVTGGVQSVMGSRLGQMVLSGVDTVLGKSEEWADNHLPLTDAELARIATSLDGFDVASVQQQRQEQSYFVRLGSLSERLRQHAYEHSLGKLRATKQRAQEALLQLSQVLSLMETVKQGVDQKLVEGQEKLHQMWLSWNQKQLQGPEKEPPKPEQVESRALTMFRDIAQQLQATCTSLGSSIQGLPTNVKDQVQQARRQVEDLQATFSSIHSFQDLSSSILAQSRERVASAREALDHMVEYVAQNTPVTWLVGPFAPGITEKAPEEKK
As to the kind of experiment: Microscale thermophoresis (MST) binding of lipids, liposomes or ALDs to full-length WT PLIN3. The note with it: for fold increase of PLIN3 binding versus unspiked DOPC/DOPE liposomes: DOPC/DOPE (80/20 mol%) liposomes, DAG 5 mol%, DOPA 10 mol%. From the text:
To corroborate these findings, we analyzed binding of PLIN3 to liposomes using microscale thermophoresis (MST), an immobilization-free technology for measuring biomolecular interactions based on the diffusion of a fluorescently labeled protein along a microscopic temperature gradient. In this assay, the free protein diffuses faster than the one which has bound to a ligand. Ligands can range from small ions to low molecular weight compounds, liposomes, or even viruses ([24], [25], [26], [27], [28]). Variations in fluorescence intensity are then plotted against the ligand concentrations to determine a binding affinity. […] To determine the optimal DAG concentrations for PLIN3 binding, we varied the DAG concentrations in the ER-liposomes between 0 to 20 mol%.
(§1) Binding of purified PLIN3 protein and PLIN3 domains to liposomes, ALDs, or short chain lipids was determined by MST using a Monolith NT.115 system (Nanotemper Technologies). Proteins were labeled with a RED-tris-NTA His tag protein-labeling reagent following the manufacturer’s instructions (Nanotemper Technologies). Labeled proteins were added to a serial dilution of unlabeled lipids, liposomes, or ALDs, and the mixtures were loaded into MST standard capillaries to assess binding affinities. The dissociation constant was obtained by plotting fluorescence intensities of the protein–lipid complex against the concentrations of the unlabeled lipids, liposomes, or ALDs. Experiments were performed in triplicates and data were fitted using the KD Model of the MO.Affinity Analysis software (https://nanotempertech.com/, Nanotemper Technologies).
On the technique in general: In MST a laser heats a spot of the sample, and binding alters the fluorescence response.

For another test, the target named is T2, 4-helix bundle of PLIN3 (Homo sapiens, UniProt O60664).
T2 sequence (O60664 245-434 limits assumed): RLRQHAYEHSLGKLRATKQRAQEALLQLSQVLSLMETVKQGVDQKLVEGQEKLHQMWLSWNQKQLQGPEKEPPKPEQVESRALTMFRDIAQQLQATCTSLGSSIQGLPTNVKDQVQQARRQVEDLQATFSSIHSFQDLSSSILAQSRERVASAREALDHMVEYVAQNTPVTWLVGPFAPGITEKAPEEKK
As to the kind of experiment: MST binding to the 4-helix bundle of PLIN3.
Source text: (§2) To gain further insight into the binding of PLIN3 to DAG-containing membranes, we examined the contribution of each individual domain of PLIN3 towards lipid binding, that is, the N-terminal PAT domain, the central 11-mer repeat region, and the C-terminally located 4-helix bundle (Fig. 2A). Therefore, we expressed and purified proteins harboring individual domains of PLIN3 and first examined their binding of short-chain lipids.
as §1

The target in another test is T3, PAT domain of PLIN3 (Homo sapiens, UniProt O60664).
T3 sequence (O60664 1-107 limits assumed): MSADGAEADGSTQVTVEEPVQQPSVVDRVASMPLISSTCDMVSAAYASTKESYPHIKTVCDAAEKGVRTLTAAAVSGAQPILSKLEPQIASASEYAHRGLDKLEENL
As to the kind of experiment: MST binding to the PAT domain of PLIN3. The note with it: short chain lipids as free ligands; n.d. = not detected; Fig. 2B.
Source text: as §2, §1

Test [1] addresses T4, 11-mer repeat region of PLIN3 (Homo sapiens, UniProt O60664).
T4 sequence (O60664 115-179 limits assumed): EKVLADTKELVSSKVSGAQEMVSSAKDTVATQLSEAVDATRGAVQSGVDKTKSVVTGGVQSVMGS
Nature of the test: MST binding to the 11-mer repeat region of PLIN3. The note with it: short chain lipids as free ligands; n.d. = not detected; Fig. 2B.
Source text: as §2, §1

Another test deals with T5, His-tagged human PLIN3 (Homo sapiens, UniProt O60664).
T5 construct: Plasmids containing human full-length PLIN3 or fragments thereof were obtained by PCR amplification; made in house; host or cells: Escherichia coli BL21 (DE3) or NiCo21 (DE3)
T5 sequence (O60664 1-434): T1 sequence (O60664 1-434)
As to the kind of experiment: Liposome flotation assay on a sucrose gradient, PLIN3 detected by Western blotting. The note with it: ER-liposomes containing 16:0 DAG at 5 mol%; top layer of sucrose gradient. Type of test: binding. Here is the method: To examine the interaction between soluble PLIN3 and membranes containing DAG, we first performed liposome-binding assays. Therefore, purified His-tagged human PLIN3 was incubated with liposomes prepared from a phospholipid mixture that mimics the composition of the ER membrane (DOPC/DOPE/DOPS/DOPA/SoyPI, 53/23/8/5/11 mol%; hereafter termed ER-liposomes) lacking or containing low concentrations of DAG (16:0 DAG; 5 mol%). Liposomes were then floated on a sucrose gradient, and PLIN3 binding was monitored by Western blotting.
Purified PLIN3 was incubated with liposomes for 1 h at RT and then gently mixed with an equal volume of 60% (w/v) sucrose solution in liposome buffer to obtain a final sucrose concentration of 30%. This mixture was overlaid with two volumes of 20% sucrose solution, two volumes of 10% sucrose solution, and one volume of liposome buffer. The samples were centrifuged at 177,000g for 1 h at 20 °C. Four fractions were collected from the top of the gradient and the distribution of PLIN3 was analyzed by Western blotting. Signal intensities were quantified using ImageJ (https://imagej.net/ij/) software.
(In western blotting, separated proteins are transferred to a membrane and probed.)

The mark [2] stands for this setting: ER-liposomes supplemented with the named DAG at 5 mol%, KD against liposome concentration, Fig. 1C, read-out: KD.

Structures are written as SMILES. Where a name gives a salt, the structure may show the parent alone. Read-outs that look alike come from different tables or passages of the source.

For `CCCCCCC(=O)OC[C@H](COP(=O)([O-])OCC[N+](C)(C)C)OC(=O)CCCCCC` [7:0 PC, 1,2-diheptanoyl-sn-glycero-3-phosphocholine], the Kd at PLIN3 came to 214 ± 71 µM; at 4-helix bundle of PLIN3, 88.5 ± 28.8 µM.
Compound `CCCCCCCC(=O)OC[C@H](COP(=O)(O)O)OC(=O)CCCCCCC` [8:0 PA, 1,2-dioctanoyl-sn-glycero-3-phosphate sodium salt] returned a Kd on PAT domain of PLIN3 of 14.1 µM.
Turning to `CCCCCCCC(=O)OC[C@H](COP(=O)(O)OC[C@H](N)C(=O)O)OC(=O)CCCCCCC` [8:0 PS, 1,2-dioctanoyl-sn-glycero-3-phospho-L-serine sodium salt], the values for the Kd (at PAT domain of PLIN3; in test [1]) were 106 ± 30.5 µM and 471 ± 53.8 µM, respectively.
In the case of `CCCCCCCC(=O)OCC(COC(=O)CCCCCCC)OC(=O)CCCCCCC` [8:0 TAG, 1,2,3-trioctanoylglycerol], the Kd on PAT domain of PLIN3 is 17.3 µM; on PLIN3 (short chain lipid as free ligand, Fig. 1I, Fig. 4C, read-out: KD), 0.27 µM.
As to `CCCCCCCCCCCCCCCC(=O)OC[C@H](CO)OC(=O)CCCCCCCCCCCCCCC` [16:0 DAG, 1,2-dipalmitoyl-sn-glycerol], at His-tagged human PLIN3, the “fraction of PLIN3 recovered from liposomes” value stood at 13.9%. The “fold increase of PLIN3 binding versus unspiked DOPC/DOPE liposomes” value at PLIN3 worked out at 36 fold. The “fold lower dissociation constant than ER-liposomes lacking DAG” value on PLIN3 (ER-liposomes containing 16:0 DAG at 5 mol%) stood at 29 fold. The Kd was found to be 20.6 µM at PLIN3 (setting [2]) and 15 µM at PLIN3 (PC/PE liposomes (DOPC/DOPE; 80/20 mol%) spiked with 16:0 DAG at 5 mol%, Fig. 1H, read-out: KD).
`CCCCCCCC/C=C\CCCCCCCC(=O)OC[C@H](CO)OC(=O)CCCCCCC/C=C\CCCCCCCC` [18:1 DAG, 1,2-dioleoyl-sn-glycerol]: the Kd on PLIN3 (setting [2]) worked out at 60.1 µM.
As for `CCCCCCCC/C=C\CCCCCCCC(=O)OC[C@H](COP(=O)(O)O)OC(=O)CCCCCCC/C=C\CCCCCCCC` [18:1 PA, 1,2-dioleoyl-sn-glycero-3-phosphate], on PLIN3, the “fold increase of PLIN3 binding versus unspiked DOPC/DOPE liposomes” value is given as 9 fold. Also, at PLIN3 (PC/PE liposomes (DOPC/DOPE; 80/20 mol%) spiked with the named lipid at 10 mol%, n.d. = not detected, Fig. 1H, read-out: KD), the Kd amounted to 58.1 µM.
In the case of `CC(C)CCC[C@@H](C)[C@H]1CC[C@H]2[C@@H]3CC=C4C[C@@H](O)CC[C@]4(C)[C@H]3CC[C@]12C` [cholesterol], the dissociation constant (Kd) on PLIN3 (ER-liposomes supplemented with 20 mol% cholesterol, Fig. 1E, read-out: KD) was determined as 64.9 µM.
